From ChEMBL document CHEMBL1201862, “PubChem BioAssay data set” (2004) come the findings set out here.

Assay in all cases: DTP human tumour cell line panel, 48 h
The test system of test [1] is RXF 393.
Test [2] has as its system SK-MEL-28.
Test [3] has as its system Hs-578T.
Test [4] has as its system HOP-62.
In test [5] the test system is RPMI-8226.
The test system of test [6] is UO-31.
Test [7] deals with NCI-H522.
Test [8] has as its system IGROV-1.
The subject of test [9] is SF-539.
The subject of test [10] is HOP-92.
Test [11] deals with Malme-3M.
The test system of test [12] is SF-295.
Test [13] has as its system SNB-75.
The subject of test [14] is T47D.
The subject of test [15] is OVCAR-3.
The subject of test [16] is SK-MEL-5.
For test [17], the system named is HCT-15.
The test system of test [18] is EKVX.
Test [19] concerns NCI-H23.
Test [20] relates to SW-620.

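48-hour exposure; five concentrations; linearly interpolated endpoints. Here, GI50 denotes the concentration required for 50% inhibition of growth.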 Activity calls are given as the source filed them. No stated cut-off is given here; in the data, active = GI50 up to about 1.1 µM and inactive = higher.

One may read the GI50 as the concentration giving 50% growth inhibition. Turning to `CCC(C)C1NC(=O)C(NC(=O)c2c3nc4c(C(=O)NC5C(=O)NC(C(C)CC)C(=O)N6CCCC6C(=O)N(C)CC(=O)N(C)C(C(C)C)C(=O)OC5C)ccc(C)c4oc-3c(C)c(=O)c2O)C(C)OC(=O)C(C(C)C)N(C)C(=O)CN(C)C(=O)C2CCCN2C1=O` (stereo not given), the GI50 is 2.54 µM (inactive) in [1]; 5.24 µM (inactive) in test [2]; 4.49 µM (inactive) in [3]; 2.99 µM (inactive) in test [4]; 0.902 µM (active) in [5]; 10.4 µM (inactive) in [6]. Besides, the GI50 in [7] was 0.295 µM (active); in test [8], 0.239 µM (active); in test [9] it was 0.838 µM (active); in test [10] it was 6.76 µM (inactive); in test [11], 1.98 µM (inactive); in test [12], 3.61 µM (inactive). Also, the GI50 is 2.62 µM (inactive) in test [13]; 2.84 µM (inactive) in test [14]; 3.24 µM (inactive) in [15]; 4.21 µM (inactive) in test [16]; 16.6 µM in test [17]; 14.2 µM (inactive) in test [18]. Also, the GI50 is 5.41 µM (inactive) in test [19] and 1.09 µM (active) in test [20].

In the case of `CC(C)(C)C(=O)C(C(=O)C(C)(C)C)C(=O)C(C)(C)C`, the GI50 in test [1], in test [2], in test [3], in test [4], in test [5] and in test [6] was > 100 µM (inactive) each time. Further, the GI50 in test [7], in [8], in test [9], in [10], in test [11] and in test [12] was > 100 µM (inactive) in each case. The GI50 in test [13] is 71 µM (inactive); in test [14], > 100 µM (inactive); in test [15] it was > 100 µM (inactive); in test [16], > 100 µM (inactive); in test [17] it was > 100 µM; in [18] it was > 100 µM (inactive). Further, the GI50 in test [19] and in test [20] was > 100 µM (inactive) in each case.

`O=C(c1cccnc1)N1N=C(c2ccccc2)CC1(O)c1cc(F)c(Cl)cc1Cl` (stereo not given): the GI50 is 16.7 µM (inactive) in [1]; 25.1 µM (inactive) in test [2]; 27 µM (inactive) in test [3]; 16.1 µM (inactive) in test [4]; 18.2 µM (inactive) in [5]; 25.6 µM (inactive) in test [6]. Moreover, the GI50 in test [7] is 26.1 µM (inactive); in test [8], 10.4 µM (inactive); in test [9], 15.4 µM (inactive); in test [10], 20.7 µM (inactive); in [11], 29.2 µM (inactive); in test [12], 16.3 µM (inactive). Further, the GI50 is 16.4 µM (inactive) in [13]; 12.3 µM (inactive) in test [14]; 7.31 µM (inactive) in test [15]; 13.9 µM (inactive) in test [16]; 26.2 µM in test [17]; 21.8 µM (inactive) in test [18]. The GI50 in test [19] was 27 µM (inactive); in test [20], 28.3 µM (inactive).

As for `C=[N+](CNC(=O)CNC(=O)C(Cc1ccc([N+](=O)[O-])cc1)NC(=O)OC(C)(C)C)C(=O)CNC(=O)C(Cc1ccc([N+](=O)[O-])cc1)NC(=O)OC(C)(C)C` (stereo not given), the GI50 in [1] was 39.4 µM (inactive); in test [2], 30.1 µM (inactive); in test [3], 26.1 µM (inactive); in test [4], > 100 µM (inactive); in test [5], 16.9 µM (inactive); in test [6] it was > 100 µM (inactive). For the same compound, the GI50 in [7] was 24.3 µM (inactive); in test [8], 42.4 µM (inactive); in [9] it was 25.1 µM (inactive); in test [10], 38.1 µM (inactive); in [11], 44.6 µM (inactive); in test [12] it was 46.6 µM (inactive). Further, the GI50 is 32.9 µM (inactive) in test [13]; > 10 µM (inactive) in [14]; 50.1 µM (inactive) in test [15]; 35.6 µM (inactive) in test [16]; > 100 µM in test [17]; > 100 µM (inactive) in test [18]. Further, the values for the GI50 in test [19] and in test [20] were 68.1 µM (inactive) and 41.6 µM (inactive), respectively.

Turning to `CCOC(=O)CC(=O)C(=O)NN=C1NCCN1`, the GI50 in test [1], in test [2], in test [3], in test [4], in test [5] and in test [6] was > 100 µM (inactive) each time. Also, the GI50 in test [7], in test [8], in test [9], in test [10], in test [11] and in test [12] was > 100 µM (inactive) throughout. In addition, the GI50 in test [13] was > 100 µM (inactive); in test [14], > 100 µM (inactive); in test [15] it was > 100 µM (inactive); in test [16] it was > 100 µM (inactive); in test [17], > 100 µM; in test [18], > 100 µM (inactive). Also, the GI50 in [19] and in test [20] was > 100 µM (inactive) in each case.

On to `CCCCCCCCCCC(O)[C@H]1CCC(C2CC[C@H]([C@H](O)CCCCCCCCCCC(O)CC3=CC(C)OC3=O)O2)O1` (stereo not given in full), for which the GI50 in test [1] was 1.76 µM (inactive); in [2], 2.05 µM (inactive); in [3] it was 1.7 µM (inactive); in [4], 1.97 µM (inactive); in test [5], 2.21 µM (inactive); in [6], 1.15 µM (inactive). Besides, the GI50 in test [7] is 1.46 µM (inactive); in test [8], 1.66 µM (inactive); in [9], 1.56 µM (inactive); in [10] it was 2.44 µM (inactive); in [11], 1.39 µM (inactive); in test [12] it was 0.214 µM (active). In addition, the GI50 in [13] was 1.76 µM (inactive); in [14], 2.23 µM (inactive); in [15], 1.71 µM (inactive); in test [16], 0.565 µM (active); in [17], 2.01 µM; in test [18] it was 1.23 µM (inactive). In addition, the GI50 was 0.0493 µM (active) in [19] and 1.87 µM (inactive) in test [20].

On to `C[C@@H](CC(O)C(O)C(C)(C)O)C1CCC23CC12CCC1[C@@]2(C)CCC(=O)C(C)(C)C2CC(OC2OC(CO)C(O)C(O)C2O)[C@]13C` (stereo not given in full), for which the GI50 in test [1], in test [2], in [3], in test [4], in [5] and in test [6] was > 10 µM (inactive) each time. The GI50 in [7], in [8], in test [9], in [10], in test [11] and in test [12] was > 10 µM (inactive) in each case. Besides, the GI50 is > 10 µM (inactive) in [13]; > 10 µM (inactive) in [14]; > 10 µM (inactive) in [15]; > 10 µM (inactive) in [16]; > 10 µM in test [17]; > 10 µM (inactive) in [18]. Besides, the GI50 in [19] and in test [20] was > 10 µM (inactive) throughout.
